This assay deals with P. falciparum 3D7 growth, pLDH absorbance. As to the kind of experiment: P. falciparum 3D7 growth inhibition, dose response, strain 3D7 (AID 2305).

SMILES strings stand for the structures. “And” between values parts separate entries of the source, which are not always exact repeats. Equal entries are not always repeated.

With `CCCc1cc(NCc2ccncc2)nc(Nc2ccc(F)cc2)n1`, the IC50 came out at 1120 nM. This counts as single-digit micromolar.

With `c1cc(CNCC2CCCO2)cc(-c2cccc(-c3nc4ccccc4[nH]3)c2)c1` (stereo not drawn), the half-inhibitory concentration (IC50) is 860 nM.

The molecule `Cc1ccc(Cn2cnc3cc(C(=O)Nc4ccc(-c5cccc(CN(C)C)c5)cc4)ccc3c2=O)o1` came in with an IC50 of 630 nM.

On to `Cc1ccc(Cn2cnc3cc(C(=O)Nc4ccc(-c5ccc(CN(C)C)cc5)cc4)ccc3c2=O)o1`, for which the IC50 worked out at 1260 nM.

On to `CCOc1ccc2nc3cc(N)ccc3c(N)c2c1`, for which the IC50 was 530 nM.

Regarding `CC[C@H]1CN2CC[C@@H]1C[C@@H]2[C@@H](O)c1cc(-c2ccc(F)cc2)nc2ccc(OC)cc12`, the half-maximal inhibitory concentration (IC50) worked out at 110 nM.

Consider `CN(C)CCCNc1nccc(N(C)c2ccc(NC(=O)Nc3cc(C(F)(F)F)ccc3F)cc2)n1`, for which the IC50 amounted to 980 nM. This IC50 lies about 8.9-fold higher than the previous one.

Turning to `O=C(Nc1ccc(Cn2ncc(N3CCCNCC3)c(Cl)c2=O)cc1)Nc1cc(F)cc(C(F)(F)F)c1`, the IC50 was determined as 770 nM.

Take `CN(C)Cc1cccc2[nH]c(-c3csc(Cc4cc(Cl)ccc4OCc4ccccc4)n3)nc12`: the IC50 is 1120 nM.

With `N#Cc1ccc2c(c1)CN(C1CCC(NC(=O)/C=C/c3cc(C(F)(F)F)cc(C(F)(F)F)c3)CC1)CCC2` (stereo not drawn), the 50% inhibitory concentration (IC50) worked out at 1390 nM.

`Cc1cc(C)c(NC(=O)N2CCCN(CCCCCNC(=O)/C=C/c3ccc(Cl)c(Cl)c3)CC2)c(C)c1` yielded an IC50 of 970 nM.

Regarding `O=C(Nc1cc(C(F)(F)F)ccc1Cl)c1ccc(Cn2cc(Br)cn2)cc1`, the IC50 came to 1350 nM.

The molecule `CCCC[C@H](NC(=O)OC(C)(C)C)C(=O)Nc1ccc(Cc2ccc(NC(=O)[C@H](CCCC)NC(=O)OC(C)(C)C)cc2)cc1` came in with an IC50 of 730 nM.

Regarding `CC(Sc1n[nH]c(-c2cccs2)n1)C(=O)c1c[nH]c2ccccc12` (stereo not drawn), the IC50 worked out at 1800 nM.

Take `CN(C)c1ccc(CN2CCC(CNC(=O)c3cc(-c4cccc(F)c4)cs3)C2)cc1` (stereo not drawn): the concentration for half-maximal inhibition (IC50) is 1020 nM.

For the molecule `O=C(Cc1cccc2ccccc12)NC1CCN(c2ccnc3cc(Cl)ccc23)C1` (stereo not drawn), the IC50 stood at 250 nM. This IC50 lies about 4.1-fold lower than the previous one.

Turning to `CC(C)c1ccc(CN2CCC(CNC(=O)c3cc(-c4ccc(N(C)C)cc4)cs3)C2)cc1` (stereo not drawn), the half-inhibitory concentration (IC50) came out at 1250 nM.

Consider `Cc1cc(-c2ccc(Cl)cc2)c2c(N)c(C(=O)Nc3ccc(F)cc3)sc2n1`, for which the 50% inhibitory concentration (IC50) is 820 nM. This IC50 is about 1.5-fold lower than that of the molecule before.

As for `Cc1cccc2[nH]c(-c3ccc(-c4ccc(NC(=O)Nc5cccc(C#N)c5)cc4)s3)nc12`, the IC50 was 120 nM.

For `COc1cccc(C(=O)Nc2ccc(Oc3ccc(Cl)cc3)cc2)c1`, the IC50 came to 960 nM.

`CC(C)(CNCc1ccc(OC(F)(F)F)cc1)c1nc(-c2ccc(Cl)c(O)c2)c(-c2ccncc2)[nH]1` registered an IC50 of 550 nM.

`CC(=O)Nc1ccc(CN2CCCN(c3cc(NC(=O)c4cccc(C)c4)ccn3)CC2)cc1` gave an IC50 of 860 nM. This IC50 lies about 1.6-fold higher than the previous one.

In the case of `COc1ccc(NS(=O)(=O)c2ccc(C(=O)Nc3ccc(C(F)(F)F)cc3)cc2)cc1N1CCN(CC2CC2)CC1`, the half-inhibitory concentration (IC50) was 830 nM.

As to `Cc1ccc(C)c(-n2c(SCC(=O)Nc3ccc(C(N)=O)cc3)nnc2-c2cccc(Cl)c2)c1`, the IC50 is 840 nM. This IC50 and that of the molecule before are within 1.5-fold of each other.

The molecule `Cc1c(C(=O)Nc2cc(Sc3ccc(F)cc3)cc([N+](=O)[O-])c2)sc2ncn(Cc3cccc(F)c3)c(=O)c12` displayed an IC50 of 720 nM.

`O=C(Nc1ccccc1)N(Cc1ccc(-c2cccc(CNCc3ccc4c(c3)OCO4)c2)cc1)C1CCN(Cc2ccccc2)CC1` registered an IC50 of 280 nM.

Molecule `O=C(/C=C/c1ccc(Cl)c(Cl)c1)NCCCCCN1CCC(NC(=O)Nc2ccc(C(F)(F)F)cc2)C1` (stereo not drawn) had a half-inhibitory concentration (IC50) of 510 nM. Against the preceding molecule, the IC50 is about 1.8-fold higher.

As for `O=C(Nc1ccc(Cn2ncc(N3CCCNCC3)c(Cl)c2=O)cc1)Nc1ccc(F)cc1[N+](=O)[O-]`, the IC50 stood at 1100 nM.

As for `Cc1cc(N2CCCC2)nc(Nc2ccc(NC(=O)CC(C)C)cc2)n1`, the IC50 was 840 nM.

Molecule `N=c1n(CCN2CCCCC2)c2ccccc2n1CC(O)c1ccc(Cl)c(Cl)c1` (stereo not drawn) came in with a 50% inhibitory concentration (IC50) of 320 nM.

Molecule `CN(C)CCOc1ccc(-n2c(-c3nonc3N)nc3cncc(-c4ccc(F)cc4)c32)cc1` returned a 50% inhibitory concentration (IC50) of 870 nM.

Regarding `Cc1[nH]c(C)c(-c2ccc(Oc3ccc(OC(F)(F)F)cc3)cc2)c(=O)c1Br`, the IC50 is 560 nM and 110 nM.

In turn, `CCN1CCN(c2cc(C)c3cc(NC(=O)c4cc(OC)cc(OC)c4)ccc3n2)CC1` showed a half-inhibitory concentration (IC50) of 160 nM.
